Laboratory results from patent US12162878B2 (HINOVA PHARMACEUTICALS INC., priority 2018, dated 2024).

Test system: CWR22RV1 cells
Assay: Inhibition of proliferation of CWR22RV1 cells (CCK-8)
Format: cell-based, human
Conditions: Homo sapiens, CWR22Rv1, 144 h, 6 days
Description: • CWR22RV1 cell line (Cell Bank of Chinese Academy of Sciences, TCHu100) • FBS (Gibco, Cat. No. 10099-141) • 0.01M PBS (Biosharp, Cat. No. 162262) • RIPM1640 (Hyclone, Cat. No. 308090.01) • Penicillin-Streptomycin (Hyclone, Cat. No. SV30010) • Cell counting kit-8 (Signalway Antibody, Cat. No. CP002) • DMSO (Sigma, Cat. No. D5879) • Centrifuge Tube, 15 ml (Excell Bio, Cat. No. CS015-0001) • Cell Culture Dish, (Excell Bio, Cat. No. CS016-0128) • 96-well cell culture cluster (Corning, Cat. No. 3599) • 2. Experimental method (1) Preparation of Buffer
1) CWR22RV1 cells were subcultured in cell culture medium, and the cells in good growth condition were seeded in a 96-well plate, 80 μL for each well, thus the number of cells per well was 1500, then the plate was cultured overnight in a 37° C., 5% CO2 cell incubator.
2) The drug was prepared with dimethyl sulfoxide (DMSO) as a 30 mM stock solution. Prior to use, the solution was diluted 3 times with DMSO, and then diluted with a 3-fold gradient to obtain 9 concentration gradients. Then, each concentration of the compound was further diluted 200 times with the culture solution (to ensure that DMSO concentration in the culture system was 0.1%), 2 repeat wells for each concentration. The diluted solution of each compound (20 μL) was added to the cell culture well (with a final concentration of 10 μM, 3.3 μM, 1.1 μM . . . ), and shaken gently for mixing. In addition, three negative control wells containing only cells and three blank control wells containing only culture medium (20 μL DMSO diluted 200 times with culture medium being added to six wells) were included.
(1) After culturing for 6 days, 10 μL CCK-8 was added to each well and cultured for additional 2.5 h in a 37° C., 5% CO2 cell incubator.
(2) The absorbance (OD value) at 450 nm was measured with a multifunctional microplate reader.
(3) The data was analyzed by the Dose-response-inhibition equation in the software GraphPad Prism6, and the IC50 value was obtained.

SMILES | IC50
Cn1cc(-c2cc(C(=O)N3CCS(=O)(=O)CC3)ccc2N2CCC3(CC2)CC3)c2cc[nH]c2c1=O [Compound 224, 4-(5-(1,1-dioxothiomorpholine-4-carbonyl)-2-(6-aza-spiro[2.5]octan-6-yl)phenyl)-6-methyl-1H-pyrrolo[2,3-c]pyridin-7(6H)-one] | 62 nM
CCS(=O)(=O)Nc1ccc(N2CC3CC2CO3)c(-c2cn(C)c(=O)c3[nH]ccc23)c1 (stereo not drawn) [Compound 190, N-(4-(2-oxa-5-azabicyclo[2.2.1]heptan-5-yl)-3-(methyl-7-oxo-6,7-dihydro-1H-pyrrolo[2,3-c]pyridin-4-yl)phenyl)ethanesulfonamide] | 180 nM
Cn1cc(-c2cc(NS(=O)(=O)C3COC3)ccc2N2CCC3(CC3)C2)c2cc[nH]c2c1=O [Compound 191, N-(3-(6-methyl-7-O-6,7-dihydro-1H-pyrrolo[2,3-c]pyridin-4-yl)-4-(5-aza-spiro[2.4]heptan-2-yl)phenyl)oxetane-3-ylsulfonamide] | 140 nM
CCOC(=O)C1CC12CCN(c1ccc(S(C)(=O)=O)cc1-c1cn(C)c(=O)c3[nH]ccc13)CC2 (stereo not drawn) [Compound 38, ethyl 6-(2-(6-methyl-7-oxo-6,7-dihydro-1H-pyrrolo[2,3-c]pyridin-4-yl)-4-(methylsulfonyl)phenyl)-6-azaspiro[2.5]octane-1-carboxylate] | 410 nM
CCS(=O)(=O)Nc1ccc(N2CCC3(CC2)COC3)c(-c2cn(C)c(=O)c3[nH]ccc23)c1 [Compound 194, N-(3-(6-methyl-7-oxo-6,7-dihydro-1H-pyrrolo[2,3-c]pyridin-4-yl)-4-(2-oxa-7-aza-spiro[3.5]nonan-7-yl)phenyl)ethanesulfonamide] | 46 nM
[2H]C([2H])([2H])n1cc(-c2cc(NS(=O)(=O)CC)ccc2N2CCC3(CC2)CC3C(=O)OCC)c2cc[nH]c2c1=O (stereo not drawn) [Compound 52] | 520 nM
Cn1cc(-c2cc(C(C)(C)O)ccc2N2CCC3(CC2)CC3)c2cc[nH]c2c1=O [Compound 225, 4-(5-(2-hydroxypropan-2-yl)-2-(6-aza-spiro[2.5]octan-6-yl)phenyl)-6-methyl-1H-pyrrolo[2,3-c]pyridin-7(6H)-one] | 130 nM
[2H]C([2H])([2H])n1cc(-c2cc(S(C)(=O)=O)c(N3CCC4(CC3)CC4)cc2F)c2cc[nH]c2c1=O [Compound 237, 4-(2-fluoro-5-(methanesulfonyl)-4-(6-aza-spiro[2.5]octan-6-yl)phenyl)-6-trideuteromethyl-1H-pyrrolo[2,3-c]pyridin-7(6H)-one] | 4.2 nM
[2H]C([2H])([2H])n1cc(-c2cc(S(=O)(=O)CC)ccc2N2CC3(CCC3)C2)c2cc[nH]c2c1=O [Compound 63, 4-(5-(ethylsulfonyl)-2-(2-aza-spiro[3.3]heptan-2-yl)phenyl)-6-trideuteromethyl-1H-pyrrolo[2,3-c]pyridin-7(6H)-one] | 60 nM
[2H]C([2H])([2H])n1cc(-c2cc(S(=O)(=O)C3CC3)ccc2N2CC3(CCC3)C2)c2cc[nH]c2c1=O [Compound 59, 4-(5-(cyclopropylsulfonyl)-2-(2-aza-spiro[3.3]heptan-2-yl)phenyl)-6-trideuteromethyl-1H-pyrrolo[2,3-c]pyridin-7(6H)-one] | 65 nM
[2H]C([2H])([2H])n1cc(-c2cc(S(=O)(=O)CC)cnc2N2CCC3(CC2)CC3)c2cc[nH]c2c1=O [Compound 186, 4-(5(ethylsulfonyl)-2-(6-aza-spiro[2.5]octan-6-yl)pyridin-3-yl)-6-trideuteromethyl-1H-pyrrolo[2,3-c]pyridin-7(6H)-one] | 21 nM
[2H]C([2H])([2H])n1cc(-c2cc(S(=O)(=O)NCC)ccc2N2CCC3(CC2)CC3)c2cc[nH]c2c1=O [Compound 197, N-ethyl-3-(6-trideuteromethyl-7-oxo-6,7-dihydro-1H-pyrrolo [2,3-c]pyridin-4-yl)-4-(6-aza-spiro[2.5]octan-6-yl)benzenesulfonamide] | 5 nM
[2H]C([2H])([2H])n1cc(-c2cc(NS(C)(=O)=O)ccc2N2CC3(CCC3)C2)c2cc[nH]c2c1=O [Compound 44, N-(3-(6-trideuteromethyl-7-oxo-6,7-dihydro-1H-pyrrolo[2,3-c]pyridin-4-yl)-4-(2-aza-spiro[3.3]heptan-2-yl)phenyl)methanesulfonamide] | 45 nM
CCS(=O)(=O)Nc1ccc(N2CC3(COC3)C2)c(-c2cn(C)c(=O)c3[nH]ccc23)c1 [Compound 16, N-(3-(6-methyl-7-oxo-6,7-dihydro-1H-pyrrolo[2,3-c]pyridin-4-yl)-4-(2-oxa-6-aza-spiro[3.3]heptan-6-yl)phenyl)ethanesulfonamide] | 380 nM
CCCCS(=O)(=O)c1ccc(N2CC3(COC3)C2)c(-c2cn(C)c(=O)c3[nH]ccc23)c1 [Compound 36, 4-(5-(butylsulfonyl)-2-(2-oxa-6-aza-spiro[3.3]heptan-6-yl)phenyl)-6-methyl-1H-pyrrolo[2,3-c]pyridin-7(6H)-one] | 560 nM
Cc1c[nH]c2c(=O)n(C)cc(-c3cc(S(C)(=O)=O)ccc3N3CCC4(CC3)CC4)c12 [Compound 182, 3,6-dimethyl-4-(5-(methylsulfonyl)-2-(6-aza-spiro[2.5]octan-6-yl)phenyl)-1H-pyrrolo[2,3-c]pyridin-7(6H)-one] | 40 nM
CC(=O)c1ccc(N2CCC3(CC2)CC3)c(-c2cn(C)c(=O)c3[nH]ccc23)c1 [Compound 223, 4-(5-acetyl-2-(6-aza-spiro[2.5]octan-6-yl)phenyl)-6-methyl-1H-pyrrolo[2,3-c]pyridin-7(6H)-one] | 110 nM
Cn1cc(-c2cc(S(=O)(=O)C3CC3)ccc2N2CC3(CCC3)C2)c2cc[nH]c2c1=O [Compound 29, 4-(5-(cyclopropylsulfonyl)-2-(2-aza-spiro[3.3]heptan-2-yl)phenyl)-6-methyl-1H-pyrrolo[2,3-c]pyridin-7(6H)-one] | 45 nM
COC(=O)c1ccc(N2CCC3(CC2)CC3)c(-c2cn(C)c(=O)c3[nH]ccc23)c1 [Compound 222, methyl 3-(6-methyl-7-oxo-6,7-dihydro-1H-pyrrolo[2,3-c]pyridin-4-yl)-4-(6-aza-spiro[2.5]octan-6-yl)benzoate] | 350 nM
[2H]C([2H])([2H])n1cc(-c2cc(NS(=O)(=O)C3CC3)ccc2N2CC3(COC3)C2)c2cc[nH]c2c1=O [Compound 51, N-(3-(6-trideuteromethyl-7-oxo-6,7-dihydro-1H-pyrrolo[2,3-c]pyridin-4-yl)-4-(2-oxa-6-aza-spiro[3.3]heptan-6-yl)phenyl) cyclopropanesulfonamide] | 490 nM
Cn1cc(-c2cc(S(C)(=O)=O)ccc2N2CCCC2C(=O)O)c2cc[nH]c2c1=O (stereo not drawn) [Compound 248, 1-(2-(6-methyl-7-oxo-6,7-dihydro-1H-pyrrolo[2,3-c]pyridin-4-yl)-4-(methanesulfonyl)phenyl)pyrrolidin-2-carboxylic acid] | 7000 nM
Cn1cc(-c2cc(S(C)(=O)=O)ccc2N2CCC3(CC3)C2)c2cc[nH]c2c1=O [Compound 24, 6-methyl-4-(5-(methylsulfonyl)-2-(5-aza-spiro[2.4]heptan-5-yl)phenyl)-1H-pyrrolo[2,3-c]pyridin-7(6H)-one] | 17 nM
[2H]C([2H])([2H])n1cc(-c2cc(S(=O)(=O)N3CCCC3C(=O)O)ccc2N2CCC3(CC2)CC3(F)F)c2cc[nH]c2c1=O (stereo not drawn) [Compound 244, 1-((4-(1,1-difluoro-6-aza-spiro[2.5]octan-6-yl)-3-(6-trideuteromethyl-7-oxo-6,7-dihydro-1H-pyrrolo[2,3-c]pyridin-4-yl)phenyl)sulfonyl)pyrrolidin-2-carboxylic acid] | 81 nM
Cn1cc(-c2cc(N)ccc2N2CCC3(CC2)CC3)c2cc[nH]c2c1=O [Compound 245, 4-(5-amino-2-(6-aza-spiro[2.5]octan-6-yl)phenyl)-6-methyl-1H-pyrrolo[2,3-c]pyridin-7(6H)-one] | 230 nM
[2H]C([2H])([2H])n1cc(-c2cc(S(=O)(=O)CCCC)ccc2N2CC3(CCC3)C2)c2cc[nH]c2c1=O [Compound 62] | 130 nM
[2H]C([2H])([2H])n1cc(-c2cc(NS(=O)(=O)CC)ccc2N2CCC3(CC2)COC3)c2cc[nH]c2c1=O [Compound 196, N-(3-(6-trideuteromethyl-7-oxo-6,7-dihydro-1H-pyrrolo[2,3-c]pyridin-4-yl)-4-(2-oxa-7-aza-spiro[3.5]nonan-7-yl)phenyl)ethanesulfonamide] | 56 nM
[2H]C([2H])([2H])n1cc(-c2cc(S(C)(=O)=O)ccc2N2CCC3(CC2)CC3C(=O)O)c2cc[nH]c2c1=O (stereo not drawn) [Compound 69, 6-(2-(6-trideuteromethyl-7-oxo-6,7-dihydro-1H-pyrrolo[2,3-c]pyridin-4-yl)-4-(methylsulfonyl)phenyl)-6-aza-spiro[2.5]octan-1-carboxylic acid] | 570 nM
